Results from patent publication US11987568B2, “Allosteric inhibitor of WEE1 kinase” (H. LEE MOFFITT CANCER CENTER AND RESEARCH INSTITUTE, INC., priority 2018, dated 2024).
Where “and” joins values, the source holds several entries; their conditions need not be identical. Equal values may be shown once.

How the values were obtained:
[1] = test system: histone H2B Tyr37-phopshorylation (pY37-H2B); experiment: WEE1 epigenetic activity in cells: pY37-H2B immunoprecipitation/immunoblot; assay type: cell-based, human; details: for H2B Tyr37-phopshorylation: 10 μM, 24 hours (FIG. 7A)
From the text: FIGS. 2A-2B show identification of 3 distinct types of inhibitors. […] In addition, the lysates were also subjected to by immunoblotting with pY15-Cdc2 or actin antibodies (middle and bottom panels). […] The number vehicle treated cells were used as control and percent of surviving cells were plotted.
FIGS. 4A-4B show structures of ‘hits’ identified in WEE1 epigenetic inhibitor screen. […] The reaction mix was then subjected to immunoprecipitated with WEE1 antibodies, followed by immunoblotting with pTyr antibodies. […] In addition, the lysates were also subjected to immunoblotting with actin antibodies (bottom panel).
FIGS. 7A-7C show identification of WEIN-159 as a potent WEE1 epigenetic inhibitor. […] In addition, lysates were immunoprecipitated with pY37-H2B antibodies, followed by immunoblotting with H2B antibodies (middle panel). […] The lysates were also subjected to immunoblotting with pY15-Cdc2 antibodies and were immunoprecipitated with pY37-H2B antibodies, followed by immunoblotting with H2B antibodies (middle panels). In addition, the lysates were also subjected to immunoblotting with H2B antibodies (bottom panel). […] The lysates were also subjected to immunoblotting with pY15-Cdc2 antibodies and were immunoprecipitated with pY37-H2B antibodies, followed by immunoblotting with H2B antibodies (middle panels). In addition, the lysates were also subjected to immunoblotting with actin antibodies (bottom panel).
Identification of compounds with WEE1 epigenetic inhibitory role: 14 ‘hits’ that were identified in the screen are shown in FIG. 1. These compounds were further tested for their ability to inhibit WEE1 epigenetic activity. Prostate cancer derived LNCaP cells were treated with 3 uM of compounds for 48 hours. Cells were harvested, lysates were prepared, and WEE1 epigenetic activity was detected by determining histone H2B Tyr37-phopshorylation (pY37-H2B). Lysates were also assessed for WEE1 cell cycle inhibitory activity by determining Cdc2 Tyr15-phosphorylation (pY15-Cdc2). […] These are named as ‘Cell Cycle’ inhibitors. […] These compounds are the ‘Epigenetic’ inhibitors.

[2] = test system: LAPC4 cells; experiment: LAPC4 cell proliferation, trypan blue exclusion assay; assay type: cell-based; details: Homo sapiens, 96 hr, viable cells by trypan blue exclusion
From the text: FIGS. 2A-2B show identification of 3 distinct types of inhibitors. […] In addition, the lysates were also subjected to by immunoblotting with […]-Cdc2 or actin antibodies (middle and bottom panels). […] The number vehicle treated cells were used as control and percent of surviving cells were plotted. […] The number of vehicle treated cells were used as control and percent of surviving cells were plotted. […] The number vehicle treated cells were used as control and percent of surviving cells were plotted. 7 of these epigenetic inhibitors in various assays such as cell proliferation assay, an in vitro kinase assay were performed and WEE1 autophosphorylation in vivo was determined. Prostate cancer derived LAPC4 cells were treated with inhibitors and its effect on cell proliferation was examined.

[3] = biological target: T1, Wee2 KD (Homo sapiens, UniProt P0C1S8); experiment: Differential Scanning Fluorimetry (DSF), Wee2 KD; assay type: binding; details: kinase domain purified from HEK293T cells
T1 construct: WEE1 & WEE2 (as control) kinase domains from mammalian cells (HEK293T cells) were purified
Procedure: (§1) Binding study of WEE1 epigenetic inhibitors: To identify the precise binding region/domain of WEE1 epigenetic inhibitors, WEE1 & WEE2 (as control) kinase domains from mammalian cells (HEK293T cells) were purified. The binding of inhibitors was assessed using Differential Scanning Fluorimetry (DSF).

[4] = test system: gamma-H2AX; experiment: DNA damage, gamma-H2AX immunoblot in LNCaP cells; assay type: cell-based, human; details: 3 μM, 12 hours (FIG. 3C)
Procedure: The reaction mix was then subjected to immunoprecipitated with WEE1 antibodies, followed by immunoblotting with pTyr antibodies (top panel). As a control, purified ACK1 protein was incubated in the reaction buffer containing ATP, in presence of 100 nM epigenetic inhibitors. The reaction mix was then subjected to immunoprecipitated with ACK1 antibodies, followed by immunoblotting with pTyr antibodies (bottom panel). […] In addition, the lysates were also subjected to immunoblotting with actin antibodies (bottom panel). […] In addition, the lysates were also subjected to immunoblotting with actin antibodies (bottom panel).
H2AX becomes phosphorylated on serine 139, called gamma-H2AX, is a marker of DNA damage as it localizes to sites of DNA strand breaks. This sensor then functions to trigger activation of the DNA damage response pathways. To assess whether any of the epigenetic inhibitors are potent DNA-damaging agents, cells were treated with the compounds followed by immunoblotting with gamma-H2AX antibodies.

[5] = test system: Cdc2 Tyr15-phosphorylation (pY15-Cdc2); experiment: WEE1 cell cycle inhibitory activity in cells: pY15-Cdc2 immunoblot; assay type: cell-based, human; details: for Cdc Tyr-phopshorylation: 10 μM, 24 hours (FIG. 7A)
From the text: FIGS. 2A-2B show identification of 3 distinct types of inhibitors. […] In addition, the lysates were also subjected to by immunoblotting with […]-Cdc2 or actin antibodies (middle and bottom panels). […] The number vehicle treated cells were used as control and percent of surviving cells were plotted. […] In addition, the lysates were also subjected to immunoblotting with actin antibodies (bottom panel). Identification of compounds with WEE1 epigenetic inhibitory role: 14 'hits' that were identified in the screen are shown in FIG. 1. These compounds were further tested for their ability to inhibit WEE1 epigenetic activity. Prostate cancer derived LNCaP cells were treated with 3 uM of compounds for 48 hours. […] Lysates were also assessed for WEE1 cell cycle inhibitory activity by determining Cdc2 Tyr15-phosphorylation ([…]-Cdc2). […] These are named as 'Cell Cycle' inhibitors. […] These compounds are the 'Epigenetic' inhibitors.

[6] = test system: LNCaP cells; experiment: Cell cycle analysis by propidium iodide staining; assay type: cell-based, human; details: 16 hours
Procedure: To further validate this observation, LNCaP cells were treated with WEIN-159 and 172 for 16 hours and cell cycle analysis was performed by propidium iodide staining.

[7] = biological target: full length human WEE1 kinase (Homo sapiens, UniProt P30291); experiment: ELISA based assay: WEE1 phosphorylation of biotinylated H2B peptide spanning Tyr37; assay type: biochemical; parameters: A full length human WEE1 kinase that was enzymatically active was purified from insect cell; ELISA assay % Inhibition: concentration or dose not given beside the values; details: for ELISA assay % Inhibition: Table 3, No peptide = 100, No inhibitor = 0
From the text: Designing of a Novel inhibitor Screening Platform: […] A full length human WEE1 kinase that was enzymatically active was purified from insect cell. […] NCI diversity set compound library ( 1600 compounds) was used for the screening.

[8] = biological target: T2, Wee1 KD (Homo sapiens, UniProt P30291); experiment: Differential Scanning Fluorimetry (DSF), Wee1 KD; assay type: binding; details: kinase domain purified from HEK293T cells
T2 construct: WEE1 & WEE2 (as control) kinase domains from mammalian cells (HEK293T cells) were purified
Procedure: as §1

[9] = test system: WEE1; experiment: Endogenous WEE1 auto-phosphorylation in cells (WEE1 IP, pTyr immunoblot); assay type: cell-based, human; details: LNCaP and melanoma cell line B16, 10 μM, 24 hours (FIGS. 7B and C)
Procedure: The reaction mix was then subjected to immunoprecipitated with WEE1 antibodies, followed by immunoblotting with pTyr antibodies (top panel). As a control, purified ACK1 protein was incubated in the reaction buffer containing ATP, in presence of 100 nM epigenetic inhibitors. The reaction mix was then subjected to immunoprecipitated with ACK1 antibodies, followed by immunoblotting with pTyr antibodies (bottom panel). […] In addition, the lysates were also subjected to immunoblotting with actin antibodies (bottom panel). […] In addition, the lysates were also subjected to immunoblotting with actin antibodies (bottom panel). […] In addition, the lysates were also subjected to immunoblotting with actin antibodies (bottom panel). To determine direct binding of these compounds causing WEE1 inhibition, a full length WEE1 kinase protein was incubated with the compounds. […] These inhibitors were further validated by assessing their ability to suppress endogenous WEEE activity; LNCaP cells were treated with 10 μM of these compounds overnight.

[10] = test system: global histone levels; experiment: Global histone expression, qRT-PCR; assay type: cell-based, human; details: LNCaP 5 or 10 uM 16 hr; LAPC4 3.5 uM 48 hr
From the text: FIGS. 8A-8B show inhibition of WEE1 epigenetic activity lead to increased global histone expression. […] Total RNA was isolated followed by qRT-PCR with histone H3 and actin primers. […] Total RNA was isolated followed by qRT-PCR with histone H3 and actin primers.
WEIN-159 and WEIN-172 were further assessed by treatment of LNCaP and melanoma cell line B16, followed by determination of WEE1, H2B and Cdc Tyr-phopshorylation.

[11] = biological target: WEE1 (Homo sapiens, UniProt P30291); experiment: Pull-down assay with biotinylated inhibitor on streptavidin beads; assay type: binding; details: LNCaP cell lysates, WEE1 immunoblot (FIG. 11A)
Procedure: (§2) FIGS. 11A-11E show direct interaction between inhibitor and WEE1 kinase. […] FIGS. 11C-11E show biotinylated WEIN-159 and WEIN-172 immobilized onto streptavidin beads were incubated with lysates prepared from HEK293T cells transfected with MYC-tagged WEE1 deletion constructs, followed by immunoblotting with MYC antibodies.
(§3) Inhibitory activity of WEIN-159 and WEIN-172 was further validated by examining its direct-binding to WEE1 protein, using a pull-down assay. WEIN-159 and WEIN-172 were attached to biotin molecule (FIG. 10) and then immobilized onto streptavidin beads. Beads were incubated with cell lysate, washed and electrophoresed followed by immunoblottng with WEE1 antibodies.
(§4) To further identify region within WEE1 that may be involved in binding to inhibitor, a deletion strategy was employed wherein three deletions, A-WEE1, B-WEE1 and C-Wee1 were generated which were Myc-tagged (FIG. 11B). Constructs were transfected in HEK293T cells and lysates were incubated with biotin beads with bound WEIN-159 and 172.

[12] = test system: WEE1 protein; experiment: as above; assay type: binding; details: lysates of transfected HEK293T cells (FIGS. 11C and D)
Procedure: as §2, §3, §4

[13] = test system: global histone H3K18, H3K12 and H3K9 and H4K5 acetylation; experiment: Global histone acetylation after treatment; assay type: cell-based
From the text: FIGS. 15A-15B show restoration of H3K18 epigenetic marks by epigenetic inhibitor of WEE1 kinase.
FIGS. 16A-16D show restoration of H4K5 and H3K12 epigenetic marks by epigenetic inhibitor of WEE1 kinase.
Global upregulation of histone H3K18 and H3K12 acetylation upon WEIN-159 treatment: To further examine the effect of WEE1 inhibition, global histone H3K18, H3K12 and H3K9 and H4K5 acetylation was examined following WEIN-159 and WEIN-172 treatment. […] In contrast, H3K9 acetylation levels were not affected.

[14] = LNCaP cells, 3 uM, 48 hours (FIG. 2A)
[15] = LNCaP and melanoma cell line B16, 10 μM, 24 hours (FIGS. 7B and C)

Chain of full length human WEE1 kinase (P30291 whole entry): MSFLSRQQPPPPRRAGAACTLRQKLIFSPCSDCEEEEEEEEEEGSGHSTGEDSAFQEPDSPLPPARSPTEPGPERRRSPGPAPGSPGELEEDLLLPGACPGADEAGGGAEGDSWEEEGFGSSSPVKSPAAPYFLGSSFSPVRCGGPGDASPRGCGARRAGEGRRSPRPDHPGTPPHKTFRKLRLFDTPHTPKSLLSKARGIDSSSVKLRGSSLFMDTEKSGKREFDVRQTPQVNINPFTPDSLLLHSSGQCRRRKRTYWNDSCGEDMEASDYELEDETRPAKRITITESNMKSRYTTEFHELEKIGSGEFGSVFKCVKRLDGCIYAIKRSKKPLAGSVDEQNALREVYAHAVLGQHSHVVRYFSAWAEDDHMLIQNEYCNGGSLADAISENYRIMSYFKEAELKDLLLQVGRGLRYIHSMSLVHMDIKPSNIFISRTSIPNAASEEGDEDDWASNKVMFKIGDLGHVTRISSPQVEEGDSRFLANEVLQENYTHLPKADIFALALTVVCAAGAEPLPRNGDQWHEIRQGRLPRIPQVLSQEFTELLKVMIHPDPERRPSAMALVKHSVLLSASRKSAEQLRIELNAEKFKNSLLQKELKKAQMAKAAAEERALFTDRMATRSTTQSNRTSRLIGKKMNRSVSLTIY
T1 sequence (P0C1S8 212-486): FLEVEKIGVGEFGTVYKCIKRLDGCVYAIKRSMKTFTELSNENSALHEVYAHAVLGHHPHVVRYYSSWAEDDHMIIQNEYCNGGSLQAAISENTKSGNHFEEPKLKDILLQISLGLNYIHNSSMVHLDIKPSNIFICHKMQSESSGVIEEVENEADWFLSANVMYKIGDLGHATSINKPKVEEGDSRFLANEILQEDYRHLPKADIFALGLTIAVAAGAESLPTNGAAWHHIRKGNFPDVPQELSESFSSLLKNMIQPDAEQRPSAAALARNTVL
Chain of WEE1 (Homo sapiens, UniProt P30291) (P30291 whole entry): as the sequence (P30291 whole entry) above
T2 sequence (P30291 299-569): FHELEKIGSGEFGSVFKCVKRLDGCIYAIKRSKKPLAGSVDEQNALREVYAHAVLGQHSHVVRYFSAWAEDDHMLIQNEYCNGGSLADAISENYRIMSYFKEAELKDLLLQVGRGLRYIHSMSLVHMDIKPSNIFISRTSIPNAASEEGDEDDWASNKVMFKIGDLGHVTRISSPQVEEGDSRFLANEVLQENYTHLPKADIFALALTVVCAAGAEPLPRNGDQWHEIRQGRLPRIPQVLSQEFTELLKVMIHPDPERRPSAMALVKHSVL

C=CCn1c(=O)c2cnc(Nc3ccc(N4CCN(C)CC4)cc3)nc2n1-c1cccc(C(C)(C)O)n1 [AZD-1775, reference compound]
H2B Tyr37-phosphorylation (pY37-H2B) [1, 14]: loss of both H2B and Cdc2-phosphorylation
IC50 [2]: 350 nM
ΔTm for Wee2 KD (° C.) [3]: 11.9 °C
DNA damage (gamma-H2AX) [4]: intensified double-strand DNA breakage
Cdc2 Tyr15-phosphorylation (pY15-Cdc2) [5, 14]: loss of both H2B and Cdc2-phosphorylation
Cell Cycle Analysis G1 [6]: 56.51
Cell Cycle Analysis G2/M [6]: 4.27
Cell Cycle Analysis S [6]: 39.22
ELISA assay % Inhibition [7]: 54%
ΔTm for Wee1 KD (° C.) [8]: 16.2 °C

Nc1ccc(NC(=O)c2ccc(C(=O)Nc3ccc(N)cc3)o2)cc1 [SG5-111, N^2,N^5-bis(4-aminophenyl)furan-2,5-dicarboxamide]
H2B Tyr37-phopshorylation ([1]; LNCaP cells): almost complete loss of H2B Tyr37-phopshorylation
Cdc Tyr-phopshorylation ([5]; LNCaP cells): unaffected
ELISA Inhibition (%) ([7]; Table 1, several values in a cell are repeat determinations): 46% and 55%

Cl.Nc1cccc(NC(=O)c2ccc(C(=O)Nc3cccc(N)c3)s2)c1 [WEIN-172]
H2B Tyr-phopshorylation [1, 15]: significant loss of WEE1 and H2B Tyr-phopshorylation
H2B Tyr37-phopshorylation ([1]; LNCaP cells): almost complete loss of H2B Tyr37-phopshorylation
WEE1 Tyr-phopshorylation [9]: significant loss of WEE1 and H2B Tyr-phopshorylation
global histone levels (real time PCR of H3 and H2B) [10]: significant increase in global histone levels
Cdc Tyr15-phopshorylation [5, 15]: remained unaffected
Cdc Tyr-phopshorylation ([5]; LNCaP cells): unaffected
Cell Cycle Analysis G1 [6]: 56.53
Cell Cycle Analysis G2/M [6]: 16.29
Cell Cycle Analysis S [6]: 27.18
ELISA assay % Inhibition [7]: 112%
binding of WEE1 protein to biotinylated inhibitor on streptavidin beads [11]: to lesser extent
binding to MYC-tagged WEE1 deletion constructs [12]: only full length WEE1 interacted with inhibitor
H3K9 acetylation levels [13]: not affected
H3K18 acetylation ([13]; FIG. 15): significant increase in H3K18 acetylation
H3K12 acetylation ([13]; FIGS. 16 A and B): significant increase
H4K5 acetylation ([13]; FIGS. 16A and C): significant increase
